Test results from patent publication US20070225318A1, “Pyrazole Compounds Useful In The Treatment Of Inflammation” (BIOLIPOX AB, priority 2004, published 2007).

What follows are molecules tested against T1, purified human 15-lipoxygenase (Homo sapiens, UniProt P16050) (assay: 15-lipoxygenase inhibition assay (arachidonic acid oxidation, HPLC readout)). Details: not given.
T1 sequence (P16050 1-662): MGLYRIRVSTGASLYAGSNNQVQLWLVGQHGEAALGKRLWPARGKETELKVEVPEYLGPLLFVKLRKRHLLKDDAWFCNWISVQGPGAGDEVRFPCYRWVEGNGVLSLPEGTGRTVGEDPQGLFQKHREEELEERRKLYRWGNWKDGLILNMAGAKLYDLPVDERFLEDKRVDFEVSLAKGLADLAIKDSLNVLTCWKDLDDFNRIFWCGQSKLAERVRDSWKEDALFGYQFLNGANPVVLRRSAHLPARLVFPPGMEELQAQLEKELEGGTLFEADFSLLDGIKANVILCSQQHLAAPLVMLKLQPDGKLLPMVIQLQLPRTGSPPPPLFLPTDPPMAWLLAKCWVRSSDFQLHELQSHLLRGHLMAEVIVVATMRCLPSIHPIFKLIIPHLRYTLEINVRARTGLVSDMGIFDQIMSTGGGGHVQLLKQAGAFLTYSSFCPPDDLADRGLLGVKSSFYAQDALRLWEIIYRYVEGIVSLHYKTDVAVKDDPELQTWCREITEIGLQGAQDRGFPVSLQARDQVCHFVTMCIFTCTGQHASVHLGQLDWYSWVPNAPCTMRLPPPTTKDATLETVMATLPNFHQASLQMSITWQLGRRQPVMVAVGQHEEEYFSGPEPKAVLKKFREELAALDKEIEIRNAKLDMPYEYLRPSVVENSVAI
Format: biochemical
Method: The assay employed takes advantage of the ability of lipoxygenases to oxidize polyunsaturated fatty acids, containing a 1,4-cis-pentadiene configuration, to their corresponding hydroperoxy or hydroxyl derivatives. In this particular assay, the lipoxygenase was a purified human 15-lipoxygenase and the fatty acid was arachidonic acid. The assay is performed at room temperature (20-22° C.) and the following are added to each well in a 96-well microtiter plate:
a) 35 μL phosphate buffered saline (PBS) (pH 7.4);
b) inhibitor (i.e. compound) or vehicle (0.5 μl DMSO);
c) 10 μL of a 10× concentrated solution of 15-lipoxygenase in PBS. The plates are incubated for 5 minutes at room temperature;
The plate is then incubated for 10 minutes at room temperature;
e) the enzymatic reaction is terminated by the addition of 100 μl methanol; and
f) the amount of 15-hydroperoxy-eicosatetraenoic acid or 15-hydroxy-eicosatetraenoic acid is measured by reverse phase HPLC.

| SMILES | IC50 [nM] |
| --- | --- |
| O=C(Nc1ccc2ccccc2n1)c1cc[nH]n1 [Example 2, Pyrazole-3-carboxylic acid quinolin-2-ylamide] | 330 |

Same assay, conditions: arachidonic acid substrate, room temperature, PBS pH 7.4; read-out: IC50

| SMILES | IC50 [nM] |
| --- | --- |
| Cc1cc(C(=O)Nc2cccc3ncccc23)n[nH]1 [Example 7, 5-Methylpyrazole-3-carboxylic acid quinolin-5-ylamide] | 420 |
| O=C(Nc1cccc2[nH]ccc12)c1cc(Cl)[nH]n1 [Example 48, 5-Chloropyrazole-3-carboxylic acid indol-4-ylamide] | 211 |
| CCOC(=O)c1c(NC(=O)c2cc[nH]n2)sc2c1CCCC2 [Example 56, 2-[(Pyrazole-3-carbonyl)amino]-4,5,6,7-tetrahydrobenzo[b]thiophene-3-carboxylic acid ethyl ester] | 76 |
| O=C(Nc1cccc2cccnc12)c1cc[nH]n1 [Example 59, Pyrazole-3-carboxylic acid quinolin-8-ylamide] | 465 |
| O=C(Nc1cccc2c1OC(F)(F)O2)c1cc[nH]n1 [Example 60, Pyrazole-3-carboxylic acid (2,3-(difluoromethylenedioxy)phenyl)amide] | 390 |
| O=C(Nc1ccnc2ccc(Br)cc12)c1cc[nH]n1 [Example 63, Pyrazole-3-carboxylic acid (6-bromoquinolin-4-yl)amide] | 682 |
